# Like-named read-outs stand apart in the source and are kept apart here.
# Columns and labels:
# iPSC-derived BMECs = test: Sodium fluorescein permeability across iPSC-derived BMEC monolayer on Transwell; type: in vitro ADME, human; conditions: CS03iCTRn2-derived BMECs
# Experimental: (§1) Permeability Measurements—Sodium fluorescein (10 μM, 376 Daltons; Sigma) was utilized to determine the permeability of the iPSC-BMEC barrier. Following 48 h of monoculture or co-culture, fresh EC medium was added to the Transwell system, with EC medium containing sodium fluorescein added to the top chamber and EC medium lacking sodium fluorescein added to the bottom chamber. 150 uL aliquots were taken from the bottom chamber at 0, 15, 30, 45, and 60 min, and immediately replaced with pre-warmed EC medium. Permeability coefficients were calculated based on the cleared volume of fluorescein from the top chamber to the bottom chamber.
# [1] = as above; type: in vitro ADME, human; conditions: human, 48 h
# Experimental: as §1
structure (smiles),measurement,setting,value
"O=C1OC2(c3ccc(O)cc3Oc3cc(O)ccc32)c2ccccc21 [sodium fluorescein, Sodium fluorescein]","decrease of fluorescein permeability, isogenic co-culture compared to monoculture",iPSC-derived BMECs,13 fold
same,"Papp at 60 min, 10 μM","[1]; IMR90-4 iPSC-derived BMECs co-cultured with EZ-sphere-derived neurons and astrocytes (1:3), read-out: sodium fluorescein permeability Pe",0.12 ± 0.001 ×10⁻⁶ cm/s
same,"Papp at 60 min, 10 μM","[1]; IMR90-4 iPSC-derived BMECs co-cultured with NPC-derived astrocytes and neurons, read-out: sodium fluorescein permeability Pe",0.2 ± 0.1 ×10⁻⁶ cm/s
same,"Papp at 60 min, 10 μM","[1]; IMR90-4 iPSC-derived BMECs co-cultured with primary rat astrocytes, read-out: sodium fluorescein permeability Pe",0.19 ± 0.01 ×10⁻⁶ cm/s
same,"Papp at 60 min, 10 μM","[1]; isogenic co-culture: CS03iCTRn2-derived BMECs with neurons:astrocytes (1:3), read-out: fluorescein permeability Pe",0.062 ± 0.011 ×10⁻⁶ cm/s
same,"Papp at 60 min, 10 μM","[1]; monocultured CS03iCTRn2-derived BMECs, read-out: fluorescein permeability Pe",0.81 ± 0.09 ×10⁻⁶ cm/s
same,"Papp at 60 min, 10 μM","[1]; monocultured IMR90-4 iPSC-derived BMECs, read-out: sodium fluorescein permeability Pe",0.48 ± 0.03 ×10⁻⁶ cm/s

# From patent publication US11840708B2, “Isogenic blood-brain barrier model” (Wisconsin Alumni Research Foundation, priority 2016, dated 2023)
